In US20210112813A1, “HERBICIDAL COMPOSITION AND USE THEREOF” (NANTONG JIANGSHAN AGROCHEMICAL & CHEMICALS CO., LTD., priority 2019, published 2021):

Experiments:
Format in all cases: in vivo
[1] = tested on: Bristlegrass; assay: Greenhouse pot test (treatment timing not given, Tables 6 and 7), visual control effect, Gowing method
Method: (§1) In the present application, indoor combined action of the compound of herbicide active component A and B on weeds was measured to determine the combined effect of the composition on weeds, wherein the structure of the active component A was as follows:
(§2) The weed cultivation method was as follows: quantitative weed seeds abutilon and bristlegrass were respectively sown in a paper cup filled with nutrient soil with a diameter of 7 cm, and then cultivated in the greenhouse after covering the soil, suppressing and watering. The post-emergence stem and leaf treatment was performed when the grass weeds grew to 5-7 leaf stage, broad-leaved weeds grew to 6-8 leaf stage; the pre-emergence soil treatment was performed the second day after sowing, and the early post-emergence treatment was performed after sowing and before emergence; the experiment was repeated 3 times. After the treatment and drug solution naturally dried, the weeds were placed in the greenhouse to be managed according to conventional methods. According to the suppression or death of the weeds, a visual control effect investigation was conducted 30 days after the treatment. The application adopted the Gowing method to evaluate the combined effect of the proposed composition.
(§3) X—Weed control effect when the amount of herbicide component A is P;
(§4) Y—Weed control effect when the amount of herbicide component B is Q;
(§5) E0—Theoretical control effect when the amount of herbicide component A is […];
(§6) E—The measured control effect after the herbicide component A and the herbicide component B are mixed according to the above ratio.
(§7) When E−E0>10%, it is synergism; when E−E0<−10%, it is antagonism; when E−E0 value is between ±10%, it is addition.

[2] = tested on: Abutilon; assay: Greenhouse pot test (treatment timing not given, Table 6), visual control effect, Gowing method
Method: as §1, §2, §3, §4, §5, §6, §7

[3] = tested on: Eclipta alba; assay: Greenhouse pot test, pre-emergence soil treatment, visual control effect 30 days after treatment, Gowing method
[4] = tested on: Bristlegrass; assay: Example 12 indoor pot experiment, stem and leaf spray, visual control effect 30 days after treatment, Gowing method
Method: (§8) The combined effect of the composition on the weeds was clarified by the indoor pot experiment.
(§9) The weed cultivation and test material cultivation method was as follows: quantitative weed seeds abutilon and bristlegrass were respectively sown in a paper cup filled with nutrient soil with a diameter of 7 cm, and then cultivated in the greenhouse after covering the soil, suppressing and watering. The stem and leaf spray treatment was performed when the grass weeds grew to 5-7 leaf stage, and broad-leaved weeds grew to 6-8 leaf stage; the tests were repeated for 3 times. the treatment and drug solution naturally dried, the weeds were placed in the greenhouse to be managed according to conventional methods. According to the suppression or death of the weeds, a visual control effect investigation was conducted 30 days after the treatment.
(§10) The application adopted the Gowing method to evaluate the combined effect of the proposed composition.
as §3, §4, §5, §6, §7

[5] = tested on: Abutilon; assay: as above
Method: as §8, §9, §10, §3, §4, §5, §6, §7

[6] = tested on: Abutilon; assay: Example 15 indoor pot planting, death rate / herbicidal speed, weeds in 6-leaf stage
Method: (§11) The death rate of weeds after application of the herbicidal composition of the present application was measured and compared with the herbicidal rate when a single component was used. The test used the method of indoor pot planting. At the time of treatment, abutilon and barnyardgrass were in 6-leaf stage.

[7] = tested on: Echinochloacrusgalli; assay: as above
Method: as §11

[8] = tested on: Lambsquarters; assay: Greenhouse pot test, pre-emergence soil treatment, visual control effect 30 days after treatment, Gowing method
[9] = tested on: Amaranthusretroflexus; assay: Greenhouse pot test (treatment timing not given, Table 7), visual control effect, Gowing method
[10] = tested on: Horseweed herb (collected from Shenyang, Liaoning); assay: Example 13 combined effect on weeds, Gowing method
Method: as §9, §10, §3, §4, §5, §6, §7
(§12) The test targets were horseweed herb collected from Shenyang, Liaoning and goosegrass collected from Zhengzhou, Henan.

[11] = tested on: goosegrass (collected from Zhengzhou, Henan); assay: Example 13 combined effect on weeds, Gowing method
Method: as §9, §10, §3, §4, §5, §6, §7, §12

[12] = tested on: Bristlegrass; assay: Greenhouse pot test, post-emergence stem and leaf treatment, visual control effect 30 days after treatment, Gowing method
Method: as §1, §2, §3, §4, §5, §6, §7

[13] = tested on: Abutilon; assay: as above
Method: as §1, §2, §3, §4, §5, §6, §7

[14] = tested on: Bristlegrass; assay: Greenhouse pot test, pre-emergence soil treatment, visual control effect 30 days after treatment, Gowing method
Method: as §1, §2, §3, §4, §5, §6, §7

[15] = tested on: Abutilon; assay: as above
Method: as §1, §2, §3, §4, §5, §6, §7

[16] = Example 12 Table 1, dose 3.75 ga.i./hm^2
[17] = Example 12 Table 1, dose 7.5 ga.i./hm^2
[18] = Example 12 Table 1, dose 15 ga.i./hm^2
[19] = Example 12 Table 1, dose 30 ga.i./hm^2
[20] = Table 11, 7 days after treatment, dose 15 ga.i./hm^2
[21] = Table 11, 7 days after treatment, dose 30 ga.i./hm^2
[22] = Table 11, 7 days after treatment, dose 60 ga.i./hm^2
[23] = Table 11, 7 days after treatment, dose 120 ga.i./hm^2
[24] = Table 11, 15 days after treatment, dose 15 ga.i./hm^2
[25] = Table 11, 15 days after treatment, dose 30 ga.i./hm^2
[26] = Table 11, 15 days after treatment, dose 60 ga.i./hm^2
[27] = Table 11, 15 days after treatment, dose 120 ga.i./hm^2
[28] = Table 11, 30 days after treatment, dose 15 ga.i./hm^2
[29] = Table 11, 30 days after treatment, dose 30 ga.i./hm^2
[30] = Table 11, 30 days after treatment, dose 60 ga.i./hm^2
[31] = Table 11, 30 days after treatment, dose 120 ga.i./hm^2
[32] = Example 13 Table 2, dose 3.75 ga.i./hm^2
[33] = Example 13 Table 2, dose 7.5 ga.i./hm^2
[34] = Example 13 Table 2, dose 15 ga.i./hm^2
[35] = Example 13 Table 2, dose 30 ga.i./hm^2

With `CCOC(=O)C1(C)CC(c2cc(-n3c(=O)cc(C(F)(F)F)n(C)c3=O)c(F)cc2Cl)=NO1` (centres unmarked) [active component A, 3-(2-chloro-4-fluoro-5-(3-methyl-2,6-dioxo-4-trifluoromethyl-3,6-dihydropyrimidine-1(2H)-yl)phenyl)-5-methyl-4,5-dihydroisoxazole-5-carboxylic acid ethyl ester] the “Measured value E” value ([1]; Table 6, dose 15 ga.i./hm^2) was 10%, the “Measured value E” value ([1]; Table 6, dose 60 ga.i./hm^2) was 35% and the “Measured value E” value ([1]; Table 7, dose 15 ga.i./hm^2) was 20%. The “Measured value E” value ([1]; Table 7, dose 30 ga.i./hm^2) was 50%, the “Measured value E” value ([2]; dose 15 ga.i./hm^2) was 35% and the “Measured value E” value ([2]; dose 60 ga.i./hm^2) was 45%. The “Measured value E” value ([3]; Table 3, dose 7.5 ga.i./hm^2) was 0%, the “Measured value E” value ([3]; Table 3, dose 15 ga.i./hm^2) was 10% and the “Measured value E” value [4, 16] was 5%. For the same compound, the “Measured value E” value [4, 17] was 10%, the “Measured value E” value [4, 18] was 15% and the “Measured value E” value [4, 19] was 25%. The “Measured value E” value [5, 16] was 10%, the “Measured value E” value [5, 17] was 25% and the “Measured value E” value [5, 18] was 40%. For the same compound, the “Measured value E” value [5, 19] was 55%, the “Control effect (visual observation %)” value [6, 20] was 46.0% and the “Control effect (visual observation %)” value [6, 21] was 68.1%. For the same compound, the “Control effect (visual observation %)” value [6, 22] was 82.4%, the “Control effect (visual observation %)” value [6, 23] was 94.3% and the “Control effect (visual observation %)” value [6, 24] was 54.0%. For the same compound, the “Control effect (visual observation %)” value [6, 25] was 62.4%, the “Control effect (visual observation %)” value [6, 26] was 93.8% and the “Control effect (visual observation %)” value [6, 27] was 100%. The “Control effect (visual observation %)” value [6, 28] was 38.6%, the “Control effect (visual observation %)” value [6, 29] was 57.3% and the “Control effect (visual observation %)” value [6, 30] was 100%. For the same compound, the “Control effect (visual observation %)” value [6, 31] was 100%, the “Control effect (visual observation %)” value [7, 20] was 16.6% and the “Control effect (visual observation %)” value [7, 21] was 18.0%. For the same compound, the “Control effect (visual observation %)” value [7, 22] was 31.0%, the “Control effect (visual observation %)” value [7, 23] was 34.3% and the “Control effect (visual observation %)” value [7, 24] was 18.4%. The “Control effect (visual observation %)” value [7, 25] was 19.8%, the “Control effect (visual observation %)” value [7, 26] was 36.7% and the “Control effect (visual observation %)” value [7, 27] was 40.7%. The “Control effect (visual observation %)” value [7, 28] was 20.9%, the “Control effect (visual observation %)” value [7, 29] was 43.2% and the “Control effect (visual observation %)” value [7, 30] was 32.9%. The “Control effect (visual observation %)” value [7, 31] was 42.5%, the “Measured value E” value ([8]; Table 1, dose 7.5 ga.i./hm^2) was 5% and the “Measured value E” value ([8]; Table 1, dose 15 ga.i./hm^2) was 20%. The “Measured value E” value ([8]; Table 2, dose 15 ga.i./hm^2) was 15%, the “Measured value E” value ([8]; Table 2, dose 22.5 ga.i./hm^2) was 25% and the “Measured value E” value ([9]; dose 15 ga.i./hm^2) was 20%. The “Measured value E” value ([9]; dose 30 ga.i./hm^2) was 65%, the “Measured value E” value [10, 32] was 10% and the “Measured value E” value [10, 33] was 30%. The “Measured value E” value [10, 34] was 35%, the “Measured value E” value [10, 35] was 55% and the “Measured value E” value [11, 32] was 5%. The “Measured value E” value [11, 33] was 15%, the “Measured value E” value [11, 34] was 30% and the “Measured value E” value [11, 35] was 45%. For the same compound, the “Measured value E” value ([12]; Table 5, dose 7.5 ga.i./hm^2) was 5%, the “Measured value E” value ([12]; Table 5, dose 15 ga.i./hm^2) was 10% and the “Measured value E” value ([13]; Table 5, dose 7.5 ga.i./hm^2) was 10%. For the same compound, the “Measured value E” value ([13]; Table 5, dose 15 ga.i./hm^2) was 15%, the “Measured value E” value ([14]; Table 1, dose 7.5 ga.i./hm^2) was 0% and the “Measured value E” value ([14]; Table 1, dose 15 ga.i./hm^2) was 15%. The “Measured value E” value ([14]; Table 2, dose 15 ga.i./hm^2) was 10%, the “Measured value E” value ([14]; Table 2, dose 22.5 ga.i./hm^2) was 25% and the “Measured value E” value ([14]; Table 3, dose 7.5 ga.i./hm^2) was 0%. The “Measured value E” value ([14]; Table 3, dose 15 ga.i./hm^2) was 10%, the “Measured value E” value ([14]; Table 4, dose 15 ga.i./hm^2) was 10% and the “Measured value E” value ([14]; Table 4, dose 30 ga.i./hm^2) was 15%. The “Measured value E” value ([15]; Table 4, dose 15 ga.i./hm^2) was 5% and the “Measured value E” value ([15]; Table 4, dose 30 ga.i./hm^2) was 20%.
